One experiment concerns the target T1, Cathepsin D (Cat D) (Homo sapiens, UniProt P07339).
T1 construct: Recombinant Cat D was expressed in CHO cells; made in house; host or cells: CHO cells
The experiment can be described thus: In vitro enzymatic Cathepsin D (Cat D) FRET assay. The experiment is classed as biochemical. The settings on record: read-out: CatD IC50. An outline of the steps: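 Recombinant Cat D expressed in CHO cells, used at 9 nM and pre-incubated one hour with serially diluted inhibitor in DMSO. Peptide substrate carries a fluorophore and quencher flanking the cleavage site; reaction stopped with Tris buffer raising pH to neutrality, then fluorescence read.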

Experiment [1] deals with Beta Secretase enzyme (BACE1) (Homo sapiens, UniProt P56817). Kind of experiment: In vitro enzymatic BACE FRET assay. The experiment is classed as biochemical. An outline of the steps: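 BACE1 cleavage of a 50 nM fluorophore/quencher peptide FRET substrate ran for one hour in 0.05 M acetate pH 4.2, 10% DMSO, 100 uM genapol. Tris buffer raised pH to neutrality to stop the reaction before fluorescence was read (excitation 488 nm, […]).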
Chain of Beta Secretase enzyme (BACE1) (P56817 46-501): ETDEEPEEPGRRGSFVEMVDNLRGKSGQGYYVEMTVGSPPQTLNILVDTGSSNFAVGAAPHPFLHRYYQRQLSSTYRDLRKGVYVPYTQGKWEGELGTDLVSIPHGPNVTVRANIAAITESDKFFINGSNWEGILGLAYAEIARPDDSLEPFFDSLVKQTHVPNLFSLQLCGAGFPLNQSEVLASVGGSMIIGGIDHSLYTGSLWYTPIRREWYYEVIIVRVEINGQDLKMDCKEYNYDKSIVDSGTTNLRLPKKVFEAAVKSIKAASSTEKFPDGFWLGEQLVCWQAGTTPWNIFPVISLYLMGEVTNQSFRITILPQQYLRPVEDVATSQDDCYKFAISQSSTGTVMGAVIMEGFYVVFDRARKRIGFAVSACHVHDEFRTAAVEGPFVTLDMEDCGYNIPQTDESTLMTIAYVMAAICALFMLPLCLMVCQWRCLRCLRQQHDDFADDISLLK

Experiment [2] has as its system Aβ40 in conditioned medium of cells stably expressing Amyloid Precursor Protein (APP). Kind of experiment: In vitro BACE cell-based assay (HEK cell assay), Aβ40 sandwich ELISA. Conditions: Homo sapiens, HEK293. An outline of the steps:
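APP-stably expressing cells (40K/well, grown 24 h in DMEM/10% FBS) were treated 24 h with compounds in 10-point dose response starting at 100 μM or 10 μM, 0.1% DMSO final. Secreted Aβ40 was measured by sandwich ELISA (pAb40 capture, biotinylated 6E10 detection, europium time-resolved fluorescence); IC50 from percent inhibition.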

Where [3] appears, read: average IC50, enzyme assay, read-out: BACE1 FRET assay IC50.
Where [4] appears, read: average IC50, read-out: BACE1 FRET assay IC50.

Like-named read-outs stand apart in the source and are kept apart here. A value given as a limit tells only on which side of the number the result lay.

T1 sequence (P07339 65-412, species assumed): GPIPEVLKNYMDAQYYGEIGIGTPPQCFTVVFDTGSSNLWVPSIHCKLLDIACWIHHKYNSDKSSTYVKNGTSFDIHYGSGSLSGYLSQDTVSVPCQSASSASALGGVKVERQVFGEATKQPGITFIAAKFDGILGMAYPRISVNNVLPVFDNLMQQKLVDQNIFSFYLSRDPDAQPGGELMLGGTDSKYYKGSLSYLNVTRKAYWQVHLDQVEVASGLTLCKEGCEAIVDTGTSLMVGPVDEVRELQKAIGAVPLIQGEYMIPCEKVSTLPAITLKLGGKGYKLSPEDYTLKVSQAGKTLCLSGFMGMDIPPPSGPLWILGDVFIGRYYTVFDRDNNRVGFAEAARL

The term IC50 denotes the point on the concentration scale where inhibition reaches its midpoint. Consider `Cc1c(C(=O)Nc2ccc(F)c([C@]3(CF)CS(=O)(=O)C(C)(C)C(N)=N3)c2)nc2ccc(Cl)cn12` [Example 158, (S)—N-(3-(5-amino-3-(fluoromethyl)-6,6-dimethyl-1,1-dioxido-3,6-dihydro-2H-1,4-thiazin-3-yl)-4-fluorophenyl)-6-chloro-3-methylimidazo[1,2-a]pyridine-2-carboxamide], for which the IC50 at Cathepsin D (Cat D) is 4060 µM; in experiment [1] (setting [3]), 0.00303 µM; in experiment [2] (average IC50, cell assay), 0.0106 µM.
On the same counts, the results for `COc1cnc2c(Nc3ccc(F)c([C@]4(CF)CS(=O)(=O)C(C)(C)C(N)=N4)c3)ncc(F)c2c1` [Example 159, (S)-5-amino-3-(2-fluoro-5-((5-fluoro-3-methoxy-1,7-naphthyridin-8-yl)amino)phenyl)-3-(fluoromethyl)-6,6-dimethyl-3,6-dihydro-2H-1,4-thiazine 1,1-dioxide] are 159 µM, 0.00055 µM and 0.0285 µM.
On the same counts, the results for `CC1(C)C(N)=N[C@](C)(c2cc(NC(=O)N3CC=CCC3)ccc2F)CS1(=O)=O` [Example 160, (R)—N-(3-(5-amino-3,6,6-trimethyl-1,1-dioxido-3,6-dihydro-2H-1,4-thiazin-3-yl)-4-fluorophenyl)-5,6-dihydropyridine-1(2H)-carboxamide] are > 14.8 µM, 0.575 µM and 0.681 µM.
For `CC1(C)C(N)=N[C@](C)(c2cc(Nc3nccc4cc(OCC(F)F)cnc34)ccc2F)CS1(=O)=O` [Example 161, (R)-5-amino-3-(5-((3-(2,2-difluoroethoxy)-1,7-naphthyridin-8-yl)amino)-2-fluorophenyl)-3,6,6-trimethyl-3,6-dihydro-2H-1,4-thiazine 1,1-dioxide] the same measures were 447 µM, 0.0143 µM and 0.0178 µM.
Take `CC1(C)C(N)=N[C@](C)(c2cc(Nc3nncc4cc(C#N)cnc34)ccc2F)CS1(=O)=O` [Example 162, (R)-8-((3-(5-amino-3,6,6-trimethyl-1,1-dioxido-3,6-dihydro-2H-1,4-thiazin-3-yl)-4-fluorophenyl)amino)pyrido[2,3-d]pyridazine-3-carbonitrile]: the IC50 on Cathepsin D (Cat D) amounted to 418 µM; in experiment [1] (setting [3]) it was 0.0023 µM; in experiment [2] (average IC50, cell assay), 0.0015 µM.
As to `CC1(C)C(N)=N[C@](C)(c2cc(Sc3ccccn3)ccc2F)CS1(=O)=O` [Example 163, (R)-5-amino-3-(2-fluoro-5-(pyridin-2-ylthio)phenyl)-3,6,6-trimethyl-3,6-dihydro-2H-1,4-thiazine 1,1-dioxide], the IC50 on Cathepsin D (Cat D) was found to be 73.5 µM; in experiment [1] (setting [3]) it was 3.25 µM; in experiment [2] (average IC50, cell assay) it was 2.36 µM.
For `CC1(C)C(N)=N[C@](C)(c2cc(N)ccc2F)[C@@H](F)S1(=O)=O` [Example 164, (2S,3R)-5-amino-3-(5-amino-2-fluorophenyl)-2-fluoro-3,6,6-trimethyl-3,6-dihydro-2H-1,4-thiazine 1,1-dioxide] the same measures were 190 µM, 3.72 µM and 3.03 µM.
With `CC1(C)C(N)=N[C@](C)(c2cc(Nc3c(Cl)sc4cc(C#N)cnc34)ccc2F)CS1(=O)=O` [Example 167, (R)-3-((3-(5-amino-3,6,6-trimethyl-1,1-dioxido-3,6-dihydro-2H-1,4-thiazin-3-yl)-4-fluorophenyl)-amino)-2-chlorothieno[3,2-b]pyridine-6-carbonitrile], the IC50 stood at 11.8 µM on Cathepsin D (Cat D), 0.0139 µM in experiment [1] (read-out: BACE1 FRET assay IC50) and 1.44 µM in experiment [2].
For the molecule `CC1(C)C(N)=N[C@](C)(c2cc(Nc3nccc4cc(Cl)cnc34)ccc2F)[C@@H](F)S1(=O)=O` [Example 168, (2S,3R)-5-amino-3-(5-((3-chloro-1,7-naphthyridin-8-yl)amino)-2-fluorophenyl)-2-fluoro-3,6,6-trimethyl-3,6-dihydro-2H-1,4-thiazine 1,1-dioxide], the IC50 at Cathepsin D (Cat D) was 66.8 µM; in experiment [1] (setting [3]) it was 0.00092 µM; in experiment [2] (average IC50, cell assay), 0.0167 µM.
For the molecule `CC1(C)C(N)=N[C@](C)(c2cc(Br)c[nH]c2=O)CS1(=O)=O` [Example 169, (R)-3-(5-amino-3,6,6-trimethyl-1,1-dioxido-3,6-dihydro-2H-1,4-thiazin-3-yl)-5-bromopyridin-2(1H)-one], the IC50 was > 400 µM at Cathepsin D (Cat D); 21.1 µM in experiment [1]; > 15.6 µM in experiment [2] (average IC50, cell assay).
As to `COc1ncc(NC(=O)c2ccc(Cl)cn2)cc1[C@]1(C)CS(=O)(=O)C(C)(C)C(N)=N1` [Example 170, (R)—N-(5-(5-amino-3,6,6-trimethyl-1,1-dioxido-3,6-dihydro-2H-1,4-thiazin-3-yl)-6-methoxypyridin-3-yl)-5-chloropicolinamide], the IC50 on Cathepsin D (Cat D) came to 305 µM; in experiment [1] (setting [3]) it was 0.0225 µM; in experiment [2] (average IC50, cell assay) it was 0.0289 µM.
On the same counts, the results for `Cc1cc(OC(F)F)cnc1C(=O)Nc1cc([C@]2(C)CS(=O)(=O)C(C)(C)C(N)=N2)c(=O)n(C)c1` [Example 171, (R)—N-(5-(5-amino-3,6,6-trimethyl-1,1-dioxido-3,6-dihydro-2H-1,4-thiazin-3-yl)-1-methyl-6-oxo-1,6-dihydropyridin-3-yl)-5-(difluoromethoxy)-3-methylpicolinamide] are 186 µM, 0.00927 µM and 0.0083 µM.
`NC1=N[C@](CF)(c2cc(Br)ccc2F)CS(=O)(=O)C12CCC2` [Example 172, (S)-9-amino-7-(5-bromo-2-fluorophenyl)-7-(fluoromethyl)-5-thia-8-azaspiro[3.5]non-8-ene 5,5-dioxide]: the concentration for half-maximal inhibition (IC50) is 45.4 µM on Cathepsin D (Cat D); 3.56 µM in experiment [1] (setting [4]); > 15.6 µM in experiment [2] (average IC50, HEK cells).
Consider `CC1(C)C(N)=N[C@](C)(c2cc(C(=O)Nc3ccc(C#N)cc3O)ccc2F)CS1(=O)=O` [Example 173, (R)-3-(5-amino-3,6,6-trimethyl-1,1-dioxido-3,6-dihydro-2H-1,4-thiazin-3-yl)-N-(4-cyano-2-hydroxyphenyl)-4-fluorobenzamide], for which the IC50 at Cathepsin D (Cat D) was 104 µM; in experiment [1] (setting [3]), 2.29 µM; in experiment [2] (average IC50, cell assay) it was > 15.6 µM.
For the molecule `C[C@]1(F)C(N)=N[C@](C)(c2cc(Nc3nccc4cc(Cl)cnc34)ccc2F)CS1(=O)=O` [Example 174, (3R,6R)-5-Amino-3-(5-((3-chloro-1,7-naphthyridin-8-yl)amino)-2-fluorophenyl)-6-fluoro-3,6-dimethyl-3,6-dihydro-2H-1,4-thiazine 1,1-dioxide], the IC50 on Cathepsin D (Cat D) was found to be 101 µM; in experiment [1] (setting [3]), 0.00033 µM; in experiment [2] (average IC50, cell assay) it was 0.119 µM.
On the same counts, the results for `C[C@]1(F)C(N)=N[C@](C)(c2cc(Nc3ncnc4cc(Cl)cnc34)ccc2F)CS1(=O)=O` [Example 175, (3R,6R)-5-Amino-3-((5-(7-chloropyrido[3,2-d]pyrimidin-4-yl)amino)-2-fluorophenyl)-6-fluoro-3,6-dimethyl-3,6-dihydro-2H-1,4-thiazine 1,1-dioxide] are 75.8 µM, 0.00388 µM and 0.103 µM.
As for `COc1cnc(C(=O)Nc2ccc(F)c([C@]3(C)CS(=O)(=O)[C@](C)(F)C(N)=N3)c2)cn1` [Example 176], the IC50 on Cathepsin D (Cat D) was 650 µM; in experiment [1] (setting [4]), 0.0028 µM; in experiment [2] (average IC50, HEK cells), 0.254 µM.
For `COc1cnc2c(Nc3ccc(F)c([C@]4(C)CS(=O)(=O)[C@@](C)(F)C(N)=N4)c3)ncnc2c1` [Example 177, (3R,6R)-5-Amino-6-fluoro-3-(2-fluoro-5-((7-methoxypyrido[3,2-d]pyrimidin-4-yl)amino)phenyl)-3,6-dimethyl-3,6-dihydro-2H-1,4-thiazine 1,1-dioxide], the IC50 at Cathepsin D (Cat D) stood at 175 µM; in experiment [1] (setting [3]), 0.00268 µM; in experiment [2] (average IC50, cell assay), 0.0782 µM.
Turning to `C[C@]1(F)C(N)=N[C@](C)(c2cc(Nc3ncc(F)c4cc(Cl)cnc34)ccc2F)CS1(=O)=O` [Example 178, (3R,6R)-5-Amino-3-(5-((3-chloro-5-fluoro-1,7-naphthyridin-8-yl)amino)-2-fluorophenyl)-6-fluoro-3,6-dimethyl-3,6-dihydro-2H-1,4-thiazine 1,1-dioxide], the IC50 on Cathepsin D (Cat D) worked out at 32.1 µM; in experiment [1] (setting [4]), 0.00038 µM; in experiment [2] (average IC50, HEK cells), 0.379 µM.
For `C[C@]1(F)C(N)=N[C@](C)(c2cc(Nc3ncc(F)c4cc(C#N)cnc34)ccc2F)CS1(=O)=O` [Example 179, 8-((3-((3R,6R)-5-Amino-6-fluoro-3,6-dimethyl-1,1-dioxido-3,6-dihydro-2H-1,4-thiazin-3-yl)-4-fluorophenyl)amino)-5-fluoro-1,7-naphthyridine-3-carbonitrile] the same measures were > 44.4 µM, 0.0008 µM and 0.157 µM.
`C[C@]1(F)C(N)=N[C@](C)(c2cc(Nc3ncnc4cc(C#N)cnc34)ccc2F)CS1(=O)=O` [Example 180, 4-((3-((3R,6R)-5-Amino-6-fluoro-3,6-dimethyl-1,1-dioxido-3,6-dihydro-2H-1,4-thiazin-3-yl)-4-fluorophenyl)amino)pyrido[3,2-d]pyrimidine-7-carbonitrile]: the IC50 on Cathepsin D (Cat D) was 65.5 µM; in experiment [1] (setting [3]), 0.0011 µM; in experiment [2] (average IC50, cell assay) it was 0.0894 µM.

(Values after patent US20140107109A1, “AMINO-DIHYDROTHIAZINE AND AMINO-DIOXIDO DIHYDROTHIAZINE COMPOUNDS AS BETA-SECRETASE ANTAGONISTS AND METHODS OF USE” (Amgen Inc., priority 2012, published 2014).)
